In US11203582B2, “Benzamide derivatives for inhibiting endoplasmic reticulum (ER) stress” (The Board of Regents of the University of Oklahoma, priority 2017, dated 2021):

How the values were obtained:
[1] = system: PDX1 mRNA; test: qRT-PCR of PDX1 mRNA in Tm-treated INS-1 cells; type: cell-based, rat; settings: Tm co-treatment, 24 h
Method: (A-D) INS-1 cells were treated with or without Tm (0.1 m/mL) in the presence of 13d at indicated concentrations or DMSO for 24 h. The mRNA levels of INS1 (A), INS2 (B), PDX1 (C), and MafA (D), were analyzed by qRT-PCR. Relative mRNA levels were normalized against the housekeeping gene Cyclophilin A using the comparative CT method. The results are the means of 3 replicate wells and are representative of 3 independent experiments. * P<0.05 and ** P<0.01 compared with Tm treatment alone. Bars indicate SD. (E) Insulin secretion by INS-1 cells incubated with 1.7 mM and 20 mM glucose in the presence or absence of Tm (0.1 μg/mL) and 13d. Secreted insulin was measured by ELISA after 24 h treatment. * P<0.05. The amount of insulin secreted in response to 1.7 mM glucose in the absence of Tm was set to 1.0 and was normalized with total protein concentration.
INS-1 cells were seeded at 4×10^5 cells/well in 6-well plates and treated with compounds for the indicated times. […] Relative mRNA levels were normalized against the housekeeping gene Cyclophilin A and were determined by ΔΔCt calculated from the difference in ΔCt values between the target gene and Cyclophilin A with and without treatment, based on comparative CT (cycle threshold) method. […]

[2] = system: INS-1 cells; test: TUNEL staining of Tm-treated INS-1 cells; type: cell-based, rat; settings: co-treatment with Tm, 24 h
Method: (A) INS-1 cells were treated with or without Tm (0.1 m/mL) in the presence of 13d at indicated concentrations or DMSO for 24 h. Cleaved caspase-3 and PARP were determined by Western blotting. α-Tubulin was used as a loading control. The data shown are representative of 3 independent experiments. (B) INS-1 cells were treated with or without Tm (0.1 m/mL) in the presence of 13d (0.111M) or DMSO for 48 h, and live-cell phase-contrast images were acquired (magnification 10×). The images shown are representative of 3 independent experiments. (C) TUNEL staining of INS-1 cells. INS-1 cells were treated with 0.111 g/mL of Tm with or without compound 13d for 24 h before TUNEL staining. DAPI was used as a nuclear marker. Magnification is 20×. The images shown are representative of 3 independent experiments. (D) Quantification of TUNEL staining from 20 fields of images. ** P<0.01 compared with Tm treatment alone.
To determine whether the increase in β-cell viability following treatment with 13d is caused by a suppression of apoptotic cell death, several apoptosis-related makers were measured. First, levels of cleaved caspase-3 and cleaved PARP were assayed by Western blotting. […]

SMILES: O=C(NCc1ccc(C(F)(F)F)cc1)c1cccc(CN2CCCCC2)c1 [Compound 13d, N-(4-trifluoromethylphenmethyl)-3-(N-piperidinyl)methyl benzamide]
- Tm-decreased PDX1 mRNA expression level [1]: completely rescued
- TUNEL-positive cells [2]: 0.5%
